Data reported in PubChem BioAssay AID2060619 (Molecular Pharmacology Branch, DTP, NCI, 2025).
“And” between values parts separate entries of the source, which are not always exact repeats. Identical values can stand only once. Values belong to the compound of their own block, whether it stands above or below them.

System: 323965-272-R-J2-PDC complex spheroid viability
Test: Anticancer human tumor 323965-272-R-J2-PDC patient-derived pancreatic carcinoma cell line growth inhibition [CLK]
Conditions: for viability, T/C: stronger effect = lower value
How it was run: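 Multi-cell-type spheroids combined patient-derived tumor cells with HUVEC endothelial cells and human mesenchymal stem cells. Paired agents were dosed in half-log steps down from about clinical Cmax, or from 10 microM where Cmax was unknown.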

[1] = curve of first compound, second compound 0.0316 µM
[2] = curve of first compound, second compound 0.1 µM
[3] = curve of first compound, second compound 0.316 µM
[4] = curve of first compound, second compound 1 µM
[5] = curve of first compound, second compound 3.16 µM
[6] = curve of first compound, second compound 10 µM
[7] = second compound 0.0316 µM, first compound 0.0316 µM
[8] = second compound 0.0316 µM, first compound 0.1 µM
[9] = second compound 0.0316 µM, first compound 0.316 µM
[10] = second compound 0.0316 µM, first compound 1 µM
[11] = second compound 0.0316 µM, first compound 3.16 µM
[12] = second compound 0.0316 µM, first compound 10 µM
[13] = second compound 0.1 µM, first compound 0.0316 µM
[14] = second compound 0.1 µM, first compound 0.1 µM
[15] = second compound 0.1 µM, first compound 0.316 µM
[16] = second compound 0.1 µM, first compound 1 µM
[17] = second compound 0.1 µM, first compound 3.16 µM
[18] = second compound 0.1 µM, first compound 10 µM
[19] = second compound 0.316 µM, first compound 0.0316 µM
[20] = second compound 0.316 µM, first compound 0.1 µM
[21] = second compound 0.316 µM, first compound 0.316 µM
[22] = second compound 0.316 µM, first compound 1 µM
[23] = second compound 0.316 µM, first compound 3.16 µM
[24] = second compound 0.316 µM, first compound 10 µM
[25] = second compound 1 µM, first compound 0.0316 µM
[26] = second compound 1 µM, first compound 0.1 µM
[27] = second compound 1 µM, first compound 0.316 µM
[28] = second compound 1 µM, first compound 1 µM
[29] = second compound 1 µM, first compound 3.16 µM
[30] = second compound 1 µM, first compound 10 µM
[31] = second compound 3.16 µM, first compound 0.0316 µM
[32] = second compound 3.16 µM, first compound 0.1 µM
[33] = second compound 3.16 µM, first compound 0.316 µM
[34] = second compound 3.16 µM, first compound 1 µM
[35] = second compound 3.16 µM, first compound 3.16 µM
[36] = second compound 3.16 µM, first compound 10 µM
[37] = second compound 10 µM, first compound 0.0316 µM
[38] = second compound 10 µM, first compound 0.1 µM
[39] = second compound 10 µM, first compound 0.316 µM
[40] = second compound 10 µM, first compound 1 µM
[41] = second compound 10 µM, first compound 3.16 µM
[42] = second compound 10 µM, first compound 10 µM
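Note: spheroids exposed to agents for seven days before readout.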
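Throughout, for viability, T/C: percent of DMSO vehicle control wells so 100% = untreated growth.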

Structure (SMILES): NC(=O)C(=Cn1cnc(-c2cc(C(F)(F)F)cc(C(F)(F)F)c2)n1)c1cncnc1 + CN1CCN(c2cc(C(=O)Nc3cc4cc(-c5cnn(C)c5)ccc4cn3)ccn2)CC1
IC50 [1]: 907 nM
IC50 [2]: 365 nM
IC50 [3]: < 9.49 nM
IC50 [4]: < 9.49 nM
IC50 [5]: < 9.49 nM
IC50 [6]: < 9.49 nM
viability, T/C (second compound 0.0316 µM, first compound 0.00949 µM): 99.5%
viability, T/C (second compound 0.0316 µM, first compound 0.03 µM): 100%
viability, T/C (second compound 0.0316 µM, first compound 0.0949 µM): 71.5%
viability, T/C (second compound 0.0316 µM, first compound 0.3 µM): 58.4%
viability, T/C (second compound 0.0316 µM, first compound 0.949 µM): 59.3%
viability, T/C (second compound 0.0316 µM, first compound 3 µM): 30%
viability, T/C (second compound 0.1 µM, first compound 0.00949 µM): 67.1%
viability, T/C (second compound 0.1 µM, first compound 0.03 µM): 64.7%
viability, T/C (second compound 0.1 µM, first compound 0.0949 µM): 60.4%
viability, T/C (second compound 0.1 µM, first compound 0.3 µM): 52.1%
viability, T/C (second compound 0.1 µM, first compound 0.949 µM): 38.6%
viability, T/C (second compound 0.1 µM, first compound 3 µM): 17%
viability, T/C (second compound 0.316 µM, first compound 0.00949 µM): 23.6%
viability, T/C (second compound 0.316 µM, first compound 0.03 µM): 24%
viability, T/C (second compound 0.316 µM, first compound 0.0949 µM): 20.3%
viability, T/C (second compound 0.316 µM, first compound 0.3 µM): 12.3%
viability, T/C (second compound 0.316 µM, first compound 0.949 µM): 5.84%
viability, T/C (second compound 0.316 µM, first compound 3 µM): 1.04%
viability, T/C (second compound 1 µM, first compound 0.00949 µM): 2.31%
viability, T/C (second compound 1 µM, first compound 0.03 µM): 2.24%
viability, T/C (second compound 1 µM, first compound 0.0949 µM): 4.13%
viability, T/C (second compound 1 µM, first compound 0.3 µM): 2.36%
viability, T/C (second compound 1 µM, first compound 0.949 µM): 1.39%
viability, T/C (second compound 1 µM, first compound 3 µM): 0.76%
viability, T/C (second compound 3.16 µM, first compound 0.00949 µM): 2.18%
viability, T/C (second compound 3.16 µM, first compound 0.03 µM): 4.18%
viability, T/C (second compound 3.16 µM, first compound 0.0949 µM): 3.49%
viability, T/C (second compound 3.16 µM, first compound 0.3 µM): 1.2%
viability, T/C (second compound 3.16 µM, first compound 0.949 µM): 0.81%
viability, T/C (second compound 3.16 µM, first compound 3 µM): 1.01%
viability, T/C (second compound 10 µM, first compound 0.00949 µM): 2.14%
viability, T/C (second compound 10 µM, first compound 0.03 µM): 1.92%
viability, T/C (second compound 10 µM, first compound 0.0949 µM): 1.56%
viability, T/C (second compound 10 µM, first compound 0.3 µM): 1.44%
viability, T/C (second compound 10 µM, first compound 0.949 µM): 2%
viability, T/C (second compound 10 µM, first compound 3 µM): 0.3%

IC50 (curve of compound): 3990 nM and > 10000 nM
Structure (SMILES): C=C(F)C(=O)N1CCN(c2nc(OCC3CCCN3C)nc3c2CCN(c2cccc4cccc(Cl)c24)C3)CC1CC#N (stereo unspecified)
viability, T/C (compound 0.0316 µM): 64.5% and 64.8%
viability, T/C (compound 0.1 µM): 50.8% and 64.2%
viability, T/C (compound 0.316 µM): 48.9% and 63%
viability, T/C (compound 1 µM): 69.4% and 61.5%
viability, T/C (compound 3.16 µM): 66.8% and 77.9%

IC50 (compound alone, run of 08/14/2023): 174 nM [middle of 10 runs]
Structure (SMILES): CN1CCN(c2cc(C(=O)Nc3cc4cc(-c5cnn(C)c5)ccc4cn3)ccn2)CC1
viability, T/C (compound 0.0316 µM): 98.9% [middle of 12 runs]
viability, T/C (compound 0.1 µM): 70% [middle of 12 runs]
viability, T/C (compound 0.316 µM): 28.1% [middle of 12 runs]
viability, T/C (compound 1 µM): 4.53% [middle of 12 runs]
viability, T/C (compound 3.16 µM): 4.75% [middle of 12 runs]
viability, T/C (compound 10 µM): 4.22% [middle of 11 runs]

IC50 [1]: > 10000 nM
IC50 [2]: > 10000 nM
IC50 [3]: 1900 nM
IC50 [4]: < 31.6 nM
IC50 [5]: < 31.6 nM
IC50 [6]: < 31.6 nM
Structure (SMILES): O=c1[nH]cc(F)c(=O)[nH]1 + CNC(=O)c1ccc(Nc2nc(OC3CCCC3)c3c(-c4ccc5nc(C)oc5c4)c[nH]c3n2)c(OC)c1
viability, T/C [7]: 84.2%
viability, T/C [8]: 91.9%
viability, T/C [9]: 110%
viability, T/C [10]: 91.4%
viability, T/C [11]: 73.8%
viability, T/C [12]: 55.4%
viability, T/C [13]: 85.1%
viability, T/C [14]: 80.5%
viability, T/C [15]: 72.4%
viability, T/C [16]: 65.6%
viability, T/C [17]: 57.3%
viability, T/C [18]: 53.1%
viability, T/C [19]: 59.2%
viability, T/C [20]: 59.9%
viability, T/C [21]: 57.8%
viability, T/C [22]: 48.3%
viability, T/C [23]: 50.6%
viability, T/C [24]: 41.6%
viability, T/C [25]: 43.9%
viability, T/C [26]: 41.1%
viability, T/C [27]: 48.1%
viability, T/C [28]: 38.2%
viability, T/C [29]: 34.7%
viability, T/C [30]: 29.3%
viability, T/C [31]: 40.6%
viability, T/C [32]: 36.8%
viability, T/C [33]: 37.4%
viability, T/C [34]: 36.9%
viability, T/C [35]: 29.5%
viability, T/C [36]: 27.2%
viability, T/C [37]: 37.8%
viability, T/C [38]: 42.7%
viability, T/C [39]: 38.9%
viability, T/C [40]: 37.6%
viability, T/C [41]: 31.4%
viability, T/C [42]: 31.3%

IC50 [1]: > 10000 nM
IC50 [2]: > 10000 nM
IC50 [3]: > 10000 nM
IC50 [4]: > 10000 nM
IC50 [5]: < 31.6 nM
IC50 [6]: < 31.6 nM
Structure (SMILES): O=C(c1cc(Cc2n[nH]c(=O)c3ccccc23)ccc1F)N1CCN(C(=O)C2CC2)CC1 + CNC(=O)c1ccc(Nc2nc(OC3CCCC3)c3c(-c4ccc5nc(C)oc5c4)c[nH]c3n2)c(OC)c1
viability, T/C [7]: 129%
viability, T/C [8]: 115%
viability, T/C [9]: 107%
viability, T/C [10]: 105%
viability, T/C [11]: 117%
viability, T/C [12]: 92%
viability, T/C [13]: 101%
viability, T/C [14]: 93.4%
viability, T/C [15]: 94.4%
viability, T/C [16]: 95.4%
viability, T/C [17]: 88.6%
viability, T/C [18]: 82.2%
viability, T/C [19]: 64.3%
viability, T/C [20]: 64.4%
viability, T/C [21]: 57.9%
viability, T/C [22]: 61.8%
viability, T/C [23]: 73.2%
viability, T/C [24]: 63.1%
viability, T/C [25]: 55.4%
viability, T/C [26]: 47.4%
viability, T/C [27]: 51.5%
viability, T/C [28]: 53.4%
viability, T/C [29]: 51.3%
viability, T/C [30]: 52.5%
viability, T/C [31]: 44%
viability, T/C [32]: 52.6%
viability, T/C [33]: 46.8%
viability, T/C [34]: 48.3%
viability, T/C [35]: 40%
viability, T/C [36]: 48.8%
viability, T/C [37]: 44.3%
viability, T/C [38]: 44.7%
viability, T/C [39]: 44.5%
viability, T/C [40]: 43.8%
viability, T/C [41]: 46.7%
viability, T/C [42]: 53.4%

Structure (SMILES): C=CC(=O)N1CCN(c2nc(=O)n(-c3c(C)ccnc3C(C)C)c3nc(-c4c(O)cccc4F)c(F)cc23)C(C)C1 (stereo unspecified) + CN1CCN(c2cc(C(=O)Nc3cc4cc(-c5cnn(C)c5)ccc4cn3)ccn2)CC1
IC50 [1]: > 10000 nM
IC50 [2]: < 31.6 nM
IC50 [3]: < 31.6 nM
IC50 [4]: < 31.6 nM
IC50 [5]: < 31.6 nM
IC50 [6]: < 31.6 nM
viability, T/C [7]: 63%
viability, T/C [8]: 64.3%
viability, T/C [9]: 55%
viability, T/C [10]: 63.9%
viability, T/C [11]: 60.1%
viability, T/C [12]: 67.9%
viability, T/C [13]: 51.3%
viability, T/C [14]: 45.8%
viability, T/C [15]: 39.8%
viability, T/C [16]: 57.4%
viability, T/C [17]: 51.5%
viability, T/C [18]: 46.6%
viability, T/C [19]: 17.9%
viability, T/C [20]: 17.9%
viability, T/C [21]: 16%
viability, T/C [22]: 18.2%
viability, T/C [23]: 17.4%
viability, T/C [24]: 22.6%
viability, T/C [25]: 2.53%
viability, T/C [26]: 3.03%
viability, T/C [27]: 3.22%
viability, T/C [28]: 3.64%
viability, T/C [29]: 5.21%
viability, T/C [30]: 5.85%
viability, T/C [31]: 2.77%
viability, T/C [32]: 2.98%
viability, T/C [33]: 3.49%
viability, T/C [34]: 3.29%
viability, T/C [35]: 5.91%
viability, T/C [36]: 5.6%
viability, T/C [37]: 3.45%
viability, T/C [38]: 3.36%
viability, T/C [39]: 3.83%
viability, T/C [40]: 3.24%
viability, T/C [41]: 4.22%
viability, T/C [42]: 4.53%
